Experimental data published in patent publication US11931365B2, “Use of PPAR-delta agonists in the treatment of disease” (Reneo Pharmaceuticals, Inc., priority 2022, dated 2024).

Legend:
[1] = test system: patients with FAOD (CPT2, VLCAD, LCHAD, TFP); assay: Clinical trial for fatty acid oxidation disorder (FAOD); type: in vivo, human; conditions: for 12 MWT Mean Change / MFIS Total Mean Change / SF-36 Energy/Fatigue Mean Change / decrease in MFIS / increase in SF-36 energy/fatigue domain: Baseline to Week 12
From the text: Purpose: The purposes of this study were: to assess the safety and tolerability of 12 weeks treatment with Compound I, or a pharmaceutically acceptable salt or solvate thereof (e.g., Compound II), in patients with FAOD; to investigate pharmacokinetics of Compound I, or a pharmaceutically acceptable salt or solvate thereof (e.g., Compound II), in patients with FAOD treated with Compound I, or a pharmaceutically acceptable salt or solvate thereof (e.g., Compound II); to investigate the pharmacodynamics effects of Compound I, or a pharmaceutically acceptable salt or solvate thereof (e.g., Compound II), in patients with FAOD treated with Compound I, or a pharmaceutically acceptable salt or solvate thereof (e.g., Compound II).
Intervention: Patients were administered 10-200 mg of Compound I, or a pharmaceutically acceptable salt or solvate thereof (e.g., Compound II), per day as single agent or in combination. In one cohort, patients received 50 mg of Compound I, or a pharmaceutically acceptable salt or solvate thereof (e.g., Compound II), once daily for a total of 12 weeks. In another cohort, patients received 100 mg of Compound I, or a pharmaceutically acceptable salt or solvate thereof (e.g., Compound II), once daily for a total of 12 weeks.
Detailed Description: Patients were given Compound I, or a pharmaceutically acceptable salt or solvate thereof, orally once a day.
Inclusion Criteria: Confirmed diagnosis of one of the following: carnitine palmitoyl transferase II deficiency (CPT2), very long-chain Acyl-CoA dehydrogenase deficiency (VLCAD), long-chain 3-hydroxyacyl-CoA dehydrogenase deficiency (LCHAD), or trifunctional protein deficiency (TFP).
Primary Outcome Measures: Safety Endpoints included: number and severity of adverse events. Absolute values, changes from baseline at Week 12 and incidence of clinically significant changes in: laboratory safety tests; electrocardiograms; supine vital signs; evaluation of events of special interest (rhabdomyolysis) and clinically significant changes in laboratory parameters of muscle injury including total CPK, adolase, and cardiac specific troponin (cTn).
Pharmacodynamic Endpoints included: Absolute values and changes from baseline at Week 12 in: whole body fatty acid oxidation (^13CO2 production) and blood acylcarnitines (UHPLC-MS/MS method).
Secondary Outcome Measures: Assessment of the change from baseline following 12 weeks of treatment with Compound I, or a pharmaceutically acceptable salt or solvate thereof (e.g., Compound II), in: submaximal treadmill exercise tolerance; distance walked during a 12 minute walk test; 36-Item Short Form Survey (SF-36) total score and subscales (questions 3-12). Change from baseline in Fatigue Impact Scale score (every visit). Change from baseline in Brief Pain Inventory (short form) (every visit). Blood inflammatory cytokines (Multiplex Immunoassay for sE-Selectin; GM-CSF; ICAM-1/CD54; IFN alpha; IFN gamma; IL-1 alpha; IL-1 beta; IL-4; IL-6; IL-8; IL-10; IL-12p70; IL-13; IL-17A/CTLA-8; IP-10/CXCL10; MCP-1/CCL2; MIP-1alpha/CCL3; MIP-1 beta/CCL4; sP-Selectin; TNF alpha).

human muscle cell lines = assay: Fatty acid oxidation in muscle cell lines; type: cell-based
[2] = 24 patients, 50 or 100 mg/day, 12 weeks

With Cc1cc(OC/C=C(/c2ccc(F)cc2)c2ccc(C#CCN3CCOCC3)cc2)ccc1OCC(=O)O [Compound I, (E)-2-(4-((3-(4-fluorophenyl)-3-(4-(3-morpholinoprop-1-yn-1-yl)phenyl)allyl)oxy)-2-methylphenoxy)acetic acid] the “distance walked during a 12-minute walk test” value ([1]; 50 mg once daily, 12 weeks) was “able to increase distance walked”, the “exhaled 13CO2” value ([1]; 50 mg once daily, 12 weeks) was “trend towards increases” and the “heart rate during the last ten minutes of exercise” value ([1]; 50 mg once daily, 12 weeks) was “decreases”. The “TEAEs reported as study drug related” value [1, 2] was 30%, the patients discontinuing treatment [1, 2] was 12.5% and the “patients reporting rhabdomyolysis (most common TEAE)” value [1, 2] was 16.7%. The “patients reporting treatment-emergent adverse events (TEAEs)” value [1, 2] was 75%, the “severity of the majority of study drug related TEAEs” value [1, 2] was “mild or moderate” and the “12 MWT Mean Change” value ([1]; CPT2 subgroup) was 51.9 meters. For the same compound, the “MFIS Total Mean Change” value ([1]; CPT2 subgroup) was 1.0, the “SF-36 Energy/Fatigue Mean Change” value ([1]; CPT2 subgroup) was 0.8 and the tolerability ([1]; FAOD patients) was “well tolerated”. The “12 MWT Mean Change” value ([1]; LCHAD subgroup) was 73.7 meters, the “MFIS Total Mean Change” value ([1]; LCHAD subgroup) was −9.8 and the “SF-36 Energy/Fatigue Mean Change” value ([1]; LCHAD subgroup) was 19.5. For the same compound, the “decrease in MFIS” value ([1]; LCHAD subgroup) was 9.8 point, the “increase in SF-36 energy/fatigue domain” value ([1]; LCHAD subgroup) was 19.5 point and the “decrease in MFIS” value ([1]; TFP subgroup (n = 2)) was 8.0 point. The “increase in SF-36 energy/fatigue domain” value ([1]; TFP subgroup (n = 2)) was 25.0 point, the “12 MWT Mean Change” value ([1]; VLCAD subgroup) was −36.7 meters and the “MFIS Total Mean Change” value ([1]; VLCAD subgroup) was 15.6. For the same compound, the “SF-36 Energy/Fatigue Mean Change” value ([1]; VLCAD subgroup) was −17.8 and the fatty acid oxidation (human muscle cell lines) was “dose-dependent increase”.
